Assay results as given in patent publication US7101878B1 (Agouron Pharmaceuticals, Inc., priority 1998, dated 2006).
Like-named read-outs stand apart in the source and are kept apart here.

Columns and labels:
[1] = Metabolism rate, pmol/min/mg at 1 μM, rat male; type: in vitro ADME; conditions: 1 μM compound
[2] = Pharmacokinetic studies / bioavailability in rats; type: in vivo, rat; conditions: for half-life / Cmax / Tmax: rat, plasma; for Cmax / Tmax: po
hGnRH receptor = target: T1, hGnRH receptor (Homo sapiens, UniProt P30968); experiment: Total inositol phosphates measurement, 293 cells containing the hGnRH receptor; type: cell-based; conditions: no species or readout annotated
T1 construct: expressed in transfected cells; host or cells: HEK 293 (hGnRH-R/293, from Dr. Stuart Sealfon)
T1 sequence (P30968 1-328): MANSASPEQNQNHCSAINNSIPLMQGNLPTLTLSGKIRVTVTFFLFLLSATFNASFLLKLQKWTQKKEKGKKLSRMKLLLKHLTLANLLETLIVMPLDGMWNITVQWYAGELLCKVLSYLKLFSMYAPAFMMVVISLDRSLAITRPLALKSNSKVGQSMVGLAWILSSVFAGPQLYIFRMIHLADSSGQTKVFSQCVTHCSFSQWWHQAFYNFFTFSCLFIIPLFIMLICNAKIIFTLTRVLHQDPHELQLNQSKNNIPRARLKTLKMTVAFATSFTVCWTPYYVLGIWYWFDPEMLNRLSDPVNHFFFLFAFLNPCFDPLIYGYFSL
Method: To assess the activity of the compounds as agonists or antagonists, an assay measuring accumulation of total inositol phosphates was employed. 293 cells containing the hGnRH receptor were plated onto 24-well plates (approximately 200,000 cells/well) using DMEM media. […] The medium was aspirated and the cells rinsed with serum-free DMEM. The medium was aspirated and the cells were then treated with test compounds or vehicle for 30 minutes at 37° C. […] The media was replaced with ice-cold 10 mM formic acid, which stopped the reaction and also served to extract cellular lipids. Inositol phosphates were separated by ion-exchange chromatography on Dowex columns, which were washed with 2.5 mL of 10 mM myoinositol and 10 mM formic acid. The columns were then washed with 5 mL of 60 mM sodium formate and […], and total inositol phosphates were eluted with 5 mL 1M ammonium formate, 0.1 M formic acid. The column eluates were added to liquid scintillation vials containing 15 ml of scintillation cocktail and were counted by liquid scintillation counting.
(§1) This cell line was provided by Dr. Stuart Sealfon, Mount Sinai Medical School New York, N.Y. These cells were grown in DMEM supplemented with 0.2 g/L G418 100 U/ml penicillin/streptomycin and 10% FBS. Both GGH3 and hGnRH-R/293 cells were utilized for both for both total inositol phosphate measurement and for microphysiometry assessment of compound efficacy.

human GnRH receptor = target: T2, human GnRH receptor (Homo sapiens, UniProt P30968); experiment: Radioligand binding, 125I-GnRH-A displacement, membranes of HEK 293 cells with human GnRH receptor
T2 construct: expressed in transfected cells; host or cells: HEK 293 (hGnRH-R/293, from Dr. Stuart Sealfon)
T2 sequence (P30968 1-328): T1 sequence (P30968 1-328)
Outline: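 After filtration and PBS washes, bound radioactivity was counted by scintillation and IC50 derived. Identical conditions applied for non-human receptors.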

rat GnRH receptor [3] = target: T3, rat GnRH receptor (Rattus norvegicus, UniProt P30969); experiment: Radioligand binding, 125I-GnRH-A, rat pituitary membranes; parameters: membranes were prepared from rat pituitary; from tissue; host or cells: rat pituitary; conditions: read-out: rGnRH IC50
T3 sequence (P30969 1-327): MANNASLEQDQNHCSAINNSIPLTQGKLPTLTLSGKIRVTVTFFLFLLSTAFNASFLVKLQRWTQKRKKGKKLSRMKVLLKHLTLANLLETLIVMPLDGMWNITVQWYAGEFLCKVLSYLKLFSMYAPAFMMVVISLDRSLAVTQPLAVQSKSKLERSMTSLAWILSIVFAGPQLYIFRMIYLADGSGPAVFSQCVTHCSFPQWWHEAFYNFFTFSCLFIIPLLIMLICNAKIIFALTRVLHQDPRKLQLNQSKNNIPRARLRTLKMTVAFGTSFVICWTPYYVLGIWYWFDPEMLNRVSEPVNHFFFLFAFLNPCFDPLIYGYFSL
Outline: (§2)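 Bound label captured on 0.1% polyethyleneimine-treated GF/C filters, washed three times with PBS, counted. IC50 derived; identical set-up for every species.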

[4] = Metabolism rate, pmol/min/mg at 1 μM, human; type: in vitro ADME; conditions: 1 μM compound
bovine GnRH receptor = target: T4, bovine GnRH receptor (Bos taurus, UniProt P32236); experiment: Radioligand binding, 125I-GnRH-A, bovine pituitary membranes
T4 construct: membranes were prepared from bovine pituitary; from tissue; host or cells: bovine pituitary
T4 sequence (P32236 1-328): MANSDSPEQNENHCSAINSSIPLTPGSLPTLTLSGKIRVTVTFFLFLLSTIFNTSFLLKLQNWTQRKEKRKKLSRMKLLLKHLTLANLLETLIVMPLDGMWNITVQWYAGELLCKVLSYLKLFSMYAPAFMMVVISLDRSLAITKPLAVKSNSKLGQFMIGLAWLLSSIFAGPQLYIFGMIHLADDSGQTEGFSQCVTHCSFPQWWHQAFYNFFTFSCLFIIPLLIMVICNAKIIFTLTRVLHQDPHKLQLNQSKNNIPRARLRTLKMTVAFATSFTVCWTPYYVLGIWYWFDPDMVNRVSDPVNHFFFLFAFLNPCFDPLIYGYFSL
Outline: as §2

mouse GnRH receptor = target: T5, mouse GnRH receptor (Mus musculus, UniProt Q01776); experiment: Radioligand binding, 125I-GnRH-A, 293 cells expressing mouse GnRH receptors
T5 construct: expressed in transfected cells; host or cells: 293 cells
T5 sequence (Q01776 1-327): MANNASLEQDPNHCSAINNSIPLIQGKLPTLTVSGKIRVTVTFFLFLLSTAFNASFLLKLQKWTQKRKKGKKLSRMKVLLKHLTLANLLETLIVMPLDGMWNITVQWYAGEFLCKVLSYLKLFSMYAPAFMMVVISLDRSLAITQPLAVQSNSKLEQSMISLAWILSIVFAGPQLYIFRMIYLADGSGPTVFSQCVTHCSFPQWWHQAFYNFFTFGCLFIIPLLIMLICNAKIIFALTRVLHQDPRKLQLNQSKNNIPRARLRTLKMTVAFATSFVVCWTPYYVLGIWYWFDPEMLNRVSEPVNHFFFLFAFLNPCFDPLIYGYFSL
Outline: as §2

D2 Dopamine = D2 Dopamine (Homo sapiens, UniProt P14416); experiment: Selectivity: D2 Dopamine
5-HT7 = 5-HT7 (Homo sapiens, UniProt P34969); experiment: Selectivity: 5-HT7
[5] = Metabolism rate, pmol/min/mg at 1 μM, monkey; type: in vitro ADME; conditions: 1 μM compound
[6] = Metabolism rate, pmol/min/mg at 1 μM, rat female; type: in vitro ADME; conditions: 1 μM compound
[7] = Metabolism rate, pmol/min/mg at 1 μM, dog; type: in vitro ADME; conditions: 1 μM compound
rat GnRH receptor [8] = target: T3, rat GnRH receptor; experiment: Microphysiometry, extracellular acidification rate, GGH3 cells; type: cell-based; conditions: agonist alone
Method: These cells have been extensively characterized previously (Kaiser et al., 1997). These cells were grown in low glucose Dulbecco's modified Eagle's medium (DMEM) containing: 100U/mL penicillin/streptomycin, 0.6 g/L G418 and 10% beat-inactivated fetal bovine serum
as §1
The Cytosensor®Microphysiometer (Molecular Devices, Sunnyvale, Calif.) is a real-time, noninvasive, nonradioactive semiconductor-based system for monitoring the cellular responses to various stimuli. It is based on a pH-sensitive silicon sensor, the light-addressable potentiometric sensor which forms part of a microvolume flow chamber in which cultured cells are immobilized (Pitchford et al., 1995; Parce et al., 1989; Owicki, et al. 1994).
GGH3 cells were seeded in low-buffered minimal essential media (MEM, Sigma) containing 25 mM NaCl and 0.1% BSA at a density of 500,000 cells/capsule onto the polycarbonate membrane (3 μm porosity) of cell capsule cups (Molecular Devices, Sunnyvale, Calif.). Capsule cups were transferred to sensor chambers where cells were held in close apposition to a silicon sensor within a sensor chamber, which measures small changes in pH in the microvolume of the sensor chamber. Low-buffered medium was pumped continuously across the cells at a rate of approximately 100 μl/min from one of two fluid reservoirs. A selection valve determined which reservoir from which fluid was perifused onto the cells.
The Cytosensor®Microphysiometer generates a voltage signal, which is a linear function of pH, every second. In order to measure acidification rates, flow to the sensor chamber containing the cells was periodically interrupted, allowing for excreted acidic metabolites to build up in the extracellular fluid of the cells. In these experiments, cells were maintained at 37° C. on a two minute flow cycle with cells being perfused with media for 80 seconds followed by 40 seconds in which the flow of media was stopped. During this 40 second interval, acidification rates were measured for a 30 sec interval. In this fashion, a single acidification rate was calculated every two min. The Cytosensor®Microphysiometer device contains eight such sensor units, allowing for eight simultaneous experiments to be performed. Each unit was individually programmed utilizing a computer linked to the system.
GGH3 cells were initially equilibrated in the low-buffered MEM media for a period of 30-60 min in which basal acidification rates (measured as μV/sec), in the absence of any stimuli, were monitored. When the basal rate of acidification changed by less than ten percent over a period of twenty minutes, experiments were initiated. Time course experiments were performed to determine the optimal time for agonist exposure prior to acidification rate measurement and the duration of exposure needed to obtain peak acidification responses to various agonists. From these time course experiments, it was determined that cells should be exposed to GnRH peptide agonists at least one minute prior to collection of acidification rate data. Peak acidification rates usually occurred in the first two-minute exposure cycle. In order to capture the peak response to GnRH, cells were exposed to the agonist for a total of four minutes. […] All compounds were tested in a final concentration of 1% DMSO in low-buffered MEM media described above.

[9] = female, 10 mg/kg, rat female, p.o. 10 mg/kg, 5 mg/ml solution in 10% DMSO 10% cremophor 80% saline
[10] = male, 20 mg/kg, rat male, p.o. 20 mg/kg, vehicle per footnote (DMSO/cremophor/saline)

Sequence of D2 Dopamine (P14416 whole entry): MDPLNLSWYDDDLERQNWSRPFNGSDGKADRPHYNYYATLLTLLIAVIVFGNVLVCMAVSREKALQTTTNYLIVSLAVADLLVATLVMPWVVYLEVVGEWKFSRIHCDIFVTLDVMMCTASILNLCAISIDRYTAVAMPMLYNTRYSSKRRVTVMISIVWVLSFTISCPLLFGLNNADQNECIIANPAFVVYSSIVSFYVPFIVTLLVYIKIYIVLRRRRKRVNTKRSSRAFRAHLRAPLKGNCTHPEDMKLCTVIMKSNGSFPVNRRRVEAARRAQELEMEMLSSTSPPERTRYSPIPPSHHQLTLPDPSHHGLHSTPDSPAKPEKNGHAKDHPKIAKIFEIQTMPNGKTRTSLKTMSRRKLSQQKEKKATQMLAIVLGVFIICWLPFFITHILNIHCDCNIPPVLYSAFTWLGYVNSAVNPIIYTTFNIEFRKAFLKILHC
Sequence of 5-HT7 (P34969 whole entry, species assumed): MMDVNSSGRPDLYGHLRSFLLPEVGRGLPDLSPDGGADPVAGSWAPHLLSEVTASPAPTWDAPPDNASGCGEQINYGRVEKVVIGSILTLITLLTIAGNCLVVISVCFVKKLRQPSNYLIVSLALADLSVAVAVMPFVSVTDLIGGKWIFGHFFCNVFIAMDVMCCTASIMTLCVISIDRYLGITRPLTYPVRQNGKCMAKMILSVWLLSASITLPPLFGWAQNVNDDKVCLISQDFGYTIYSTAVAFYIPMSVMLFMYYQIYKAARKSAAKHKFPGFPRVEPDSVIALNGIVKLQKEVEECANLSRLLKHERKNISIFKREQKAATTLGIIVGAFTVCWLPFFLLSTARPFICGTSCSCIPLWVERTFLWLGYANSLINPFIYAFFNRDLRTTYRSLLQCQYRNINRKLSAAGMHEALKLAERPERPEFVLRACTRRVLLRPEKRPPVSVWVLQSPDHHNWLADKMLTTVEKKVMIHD

SMILES	Rat male pmol/min/mg 1 μM [1] [pmol/min/mg]	half-life ([2]; male, iv, 10 mg/kg, rat male) [h]	GnRH functional (hGnRH receptor)	IC50 (human GnRH receptor; read-out: hGnRH IC50) [nM]	IC50 (rat GnRH receptor [3]) [nM]	Human pmol/min/mg 1 μM [4] [pmol/min/mg]	IC50 (bovine GnRH receptor; read-out: bGnRH IC50) [nM]	IC50 (mouse GnRH receptor; read-out: mGnRH IC50) [nM]	other results
Cc1cc2c(cc1Cc1ccc(C(=O)NC[C@H]3CC[C@@H](CNC(=N)N)CC3)o1)C(C)(C)CCC2(C)C [Compound 23]	141	0.8	Antag- onist	220	730	263	2830	2100	IC50 (human GnRH receptor; second value marked * (mostly in parentheses), asterisk not explained, read-out: hGnRH IC50, value marked *): 40 nM
CC(C)C[C@H](NC(=O)CNC(=O)[C@H](Cc1ccc(O)cc1)NC(=O)[C@H](CO)NC(=O)[C@H](Cc1c[nH]c2ccccc12)NC(=O)[C@H](Cc1c[nH]cn1)NC(=O)[C@@H]1CCC(=O)N1)C(=O)N[C@@H](CCCNC(=N)N)C(=O)N1CCC[C@H]1C(=O)NCC(N)=O [GnRH, reference compound]									extracellular acidification rate of GGH3 cells (rat GnRH receptor [8]): dose-dependent increase in the extracellular acidification rate; IC50 (bovine GnRH receptor; means ± SE of at least three experiments performed in duplicate, read-out: Bovine IC50): 13 ± 2 nM; IC50 (mouse GnRH receptor; Mouse IC50, means ± SE of at least three experiments performed in duplicate): 11 ± 2 nM

More lines, in order of falling IC50 (human GnRH receptor; read-out: hGnRH IC50), values ahead:

Rat male pmol/min/mg 1 μM [1] [pmol/min/mg]	half-life ([2]; male, iv, 10 mg/kg, rat male) [h]	GnRH functional (hGnRH receptor)	IC50 (human GnRH receptor; read-out: hGnRH IC50) [nM]	IC50 (rat GnRH receptor [3]) [nM]	Human pmol/min/mg 1 μM [4] [pmol/min/mg]	IC50 (bovine GnRH receptor; read-out: bGnRH IC50) [nM]	IC50 (mouse GnRH receptor; read-out: mGnRH IC50) [nM]	SMILES	other results
		Antag- onist	215	2900		12500	3800	Cc1cc2c(cc1Cc1ccc(C(=O)NCC3CCCCC3)o1)C(C)(C)CCC2(C)C [Compound 36]	
2521			110	530	497		320	COc1cccc(OC)c1NC(=O)c1ccc(Cc2c(C)cc(C)c(Br)c2C)o1 [Compound 140]	Ki (D2 Dopamine): 2300 nM; Cmax [2, 9]: 440 nM; Tmax [2, 9]: 1 h; half-life ([2]; female, rat female): 4.6 h; Fp.o. ([2]; rat female, 5 mg/ml solution in 10% DMSO 10% cremophor 80% saline): 59% (10 mg/kg)^10; Ki (5-HT7): > 4400 nM
1414	1.1		12	1.6	248		1.3	Cc1cc2c(cc1Cc1ccc(C(=O)NCc3cccc(CNc4nccc(NC[C@@H]5CCCO5)n4)c3)o1)C(C)(C)CCC2(C)C [Compound 148]	Monkey pmol/min/mg 1 μM [5]: 5019 pmol/min/mg; Rat female pmol/min/mg 1 μM [6]: 133 pmol/min/mg; Cmax [2, 10]: 30 nM; Tmax [2, 10]: 2 h; Fp.o. ([2]; rat male, p.o. 20 mg/kg, vehicle per footnote (DMSO/cremophor/saline)): 3% (20 mg/kg)^1; Dog pmol/min/mg 1 μM [7]: 1960 pmol/min/mg
